The source of these data is PMC7537881, “Biochemical screening for SARS-CoV-2 main protease inhibitors” (PLoS ONE, 2020).

Entries after “also recorded” stand apart in the source; their conditions may differ. Read-outs that look alike come from different tables or passages of the source.

The target of data set [1] is T1, SARS-CoV-2 M^pro (Severe acute respiratory syndrome coronavirus 2, UniProt P0DTD1). The data set is classed as biochemical. Particulars: 1 μM Mpro, 10 μM substrate, 40 μM compound.
In data set [2] the target is T1, SARS-CoV-2 M^pro. The experiment in a line: biochemical. Particulars: 10 μM substrate, 0.5 μM enzyme, triplicate; error = SEM.
Data set [3] has as its target T1, SARS-CoV-2 M^pro. Description: biochemical. The data set is classed as biochemical. Particulars: for Km: read-out: Km (Michaelis Menten constant).
The conditions of data set [4]: route and species not given; ref www.pubchem.gov; cited from earlier work.
The test system of data set [5] is human immunodeficiency virus (HIV). Also noted: method as in PMID 1517963. Particulars: cited from earlier work.
For data set [6], the system named is HIV's reverse transcriptase. Set-up: method as in PMID 1517963. Particulars: biochemical assays; cited from earlier work.
The subject of data set [7] is mouse. Particulars: ref www.pubchem.gov, cited from earlier work.
The subject of data set [8] is rat. Particulars: cited from earlier work.
Data set [9] deals with hepatitis B virus (HBV). Set-up: method as in PMID 31798562. Particulars: cited from earlier work.
Data set [10] relates to SARS-CoV M^pro. Particulars: cited from earlier work.
Data set [11] has as its system SARS-CoV-2. Particulars: cited from earlier work.
For data set [12], the system named is Vero-cell. Particulars: cited from earlier work.
The subject of data set [13] is SARS-CoV. Particulars: cited from earlier work.
Where [14] appears, read: 0.5 μM Mpro, substrate 1.25-80 μM, two inhibitor concentrations, error = SEM.
Where [15] appears, read: fitted in the kinetics experiment with this inhibitor, error = SEM.
Where [16] appears, read: most probable model by SSQ, ΔAIC, ΔBIC (Dynafit).

As to `COc1ccc(C(=O)c2ccc(O)cc2)c(O)c1O` [2,3,4'-trihydroxy-4-methoxybenzophenone], the “Inhibitory activity in the screen” value in [1] was “no significant inhibitory activity”.

In turn, `CCOc1cccc(C(=O)c2ccc(O)c(O)c2O)c1` [(3-ethoxyphenyl)-(2,3,4-trihydroxyphenyl)methanone] gave an IC50 in data set [2] of 10.6 ± 1.3 µM.

`CCOc1ccc(C(=O)c2ccc(O)c(O)c2O)cc1` [(4-ethoxyphenyl)-(2,3,4-trihydroxyphenyl)methanone] yielded an IC50 in [2] of 9 ± 1.5 µM.

Turning to `O=[N+]([O-])C(Br)(CO)CO` [Bronopol (3), 2-bromo-2-nitropropane-1,3-diol], the Ki in data set [3] (setting [14]) is 2.5 ± 0.3 µM. The “kcat (turnover number)” value in data set [3] (setting [15]) was determined as 0.010 s⁻¹. The Inhibition mechanism entry in [3] (setting [16]) is “non-competitive”; in data set [3] (most probable model by SSQ, ΔAIC, ΔBIC (Dynafit), listed as bronopol (3)), “mixed or non-competitive inhibition”. In [2], this compound came in with an IC50 of 4.4 ± 0.6 µM. In addition, in data set [4], the LD50 was 180 mg/kg.

As to `COc1cc(-c2ccc(/N=N/c3ccc4c(S(=O)(=O)O)cc(S(=O)(=O)O)c(N)c4c3O)c(OC)c2)ccc1/N=N/c1ccc2c(S(=O)(=O)O)cc(S(=O)(=O)O)c(N)c2c1O` [Chicago Sky Blue (12), Chicago Sky Blue], the “Inhibition of HIV in cellular assays” value in [5] is “inhibit”. In [3] (setting [14]), this compound yielded a Ki of 1.3 ± 0.2 µM. Moreover, in [3] (setting [15]), the “kcat (turnover number)” value worked out at 0.013 s⁻¹. Besides, in data set [3] (setting [16]), the Inhibition mechanism result is “competitive inhibition”. In addition, in [6], the “Inhibition of HIV reverse transcriptase” value is listed as “inhibit”. In data set [2], half-maximal inhibition (IC50) required 7.7 ± 1.6 µM. The LD50 in data set [7] (IV) is 2260 mg/kg.

In [2], `O=C1C(Cl)=C(Cl)C(=O)C(Cl)=C1Cl` [Chloranil (8), Chloranil] returned an IC50 of 4.1 ± 0.8 µM. The LD50 in data set [8] (oral, rat, ref www.pubchem.gov) is 4000 mg/kg.

With `Cc1cc(-c2ccc(/N=N/c3ccc4c(S(=O)(=O)O)cc(S(=O)(=O)O)c(N)c4c3O)c(C)c2)ccc1/N=N/c1ccc2c(S(=O)(=O)O)cc(S(=O)(=O)O)c(N)c2c1O` [Evans blue (11), Evans blue], the “Inhibition of HIV in cellular assays” value in data set [5] is listed as “inhibit”. Besides, in [3] (setting [14]), the Ki turned out to be 0.21 ± 0.02 µM. The “kcat (turnover number)” value in data set [3] (setting [15]) came out at 0.010 s⁻¹. In addition, the Inhibition mechanism result in [3] (setting [16]) is “competitive inhibition”. The “Inhibition of HIV reverse transcriptase” value in data set [6] is listed as “inhibit”. In [2], this compound returned an IC50 of 0.2 ± 0.06 µM. Further, the LD50 in data set [7] (IP) was 340 mg/kg. Besides, in data set [9], the “Inhibition of HBV in cellular assays” value is on record as “inhibitor”.

`CC1=C(CCC(=O)O)c2cc3[nH]c(cc4nc(cc5[nH]c(cc1n2)c(C)c5C(C)O)C(C)=C4C(C)O)c(C)c3CCC(=O)O` (stereo not drawn) [Hematoporphyrin (5), Hematoporphyrin] had a Ki in data set [3] (setting [14]) of 5.9 ± 0.5 µM. Moreover, the “kcat (turnover number)” value in [3] (setting [15]) worked out at 0.011 s⁻¹. Moreover, the Inhibition mechanism entry in data set [3] (setting [16]) is “non-competitive”; in data set [3] (most probable model by SSQ, ΔAIC, ΔBIC (Dynafit), listed as hematoporphyrin (5)), “mixed or non-competitive inhibition”. In [2], this compound displayed an IC50 of 3.9 ± 0.6 µM. The LD50 in data set [7] (IV) was 307 mg/kg.

As for `CC(=O)[O][Hg][c]1ccccc1` [Phenylmercuric acetate (2), Phenylmercuric acetate], in [3], the Inhibition mechanism entry was “competitive inhibition”, the Ki was determined as 0.11 ± 0.03 µM, the “kcat (turnover number)” value was 0.013 s⁻¹ and the Km came to 52 µM. Further, in [2], the IC50 amounted to 0.4 ± 0.06 µM. The LD50 in [8] (oral, rat, ref www.pubchem.gov) is on record as 41 mg/kg.

`CC1=CC(=O)c2c(O)cccc2C1=O` [Plumbagin (9), Plumbagin] had an IC50 in [2] of 17.1 ± 9 µM. The LD50 in data set [7] (oral) is recorded as 16 mg/kg.

Compound `C=CC1=C(C)c2cc3[nH]c(cc4nc(cc5[nH]c(cc1n2)c(C)c5CCC(=O)O)C(CCC(=O)O)=C4C)c(C)c3C=C` [Protoporphyrin IX] came in with an IC50 in data set [2] of 23 ± 2.4 µM.

Regarding `O=C(OCC1OC(OC(=O)c2cc(O)c(O)c(OC(=O)c3cc(O)c(O)c(O)c3)c2)C(OC(=O)c2cc(O)c(O)c(OC(=O)c3cc(O)c(O)c(O)c3)c2)C(OC(=O)c2cc(O)c(O)c(OC(=O)c3cc(O)c(O)c(O)c3)c2)C1OC(=O)c1cc(O)c(O)c(OC(=O)c2cc(O)c(O)c(O)c2)c1)c1cc(O)c(O)c(OC(=O)c2cc(O)c(O)c(O)c2)c1` (stereo not drawn) [Tannic acid (4), Tannic acid], the Ki in data set [3] (setting [14]) amounted to 1.4 ± 0.14 µM. For the same compound, the “kcat (turnover number)” value in [3] (setting [15]) worked out at 0.010 s⁻¹. Further, the Inhibition mechanism entry in [3] (setting [16]) was “Competitive”; in data set [3] (most probable model by SSQ, ΔAIC, ΔBIC (Dynafit), listed as tannic acid (4)) it was “competitive inhibition”. The “Relative activity (initial rate / negative control)” value in [1] is 0.0 (SD = 0.014). In addition, the IC50 is 2.1 ± 0.2 µM in [2] and 3 µM in data set [10].

Consider `C[CH2][Hg][S]c1ccccc1C(=O)[O-].[Na+]` [Thimerosal (1), Thimerosal], for which, in [3], the Inhibition mechanism result is listed as “mixed or non-competitive inhibition; also recorded: Mixed”, the Ki worked out at 0.6 ± 0.2 µM, the “kcat (turnover number)” value came out at 0.010 s⁻¹ and the Km is 47 ± 8 µM. The compound further gave an IC50 in [2] of 0.6 ± 0.1 µM. The LD50 in data set [8] (oral, rat, ref www.pubchem.gov) is listed as 75 mg/kg.

For `COc1cc(C(=S)N2CCOCC2)ccc1O` [Vanitiolide (10)], in data set [2], the IC50 was 4.6 ± 0.6 µM.

Take `COC(=O)N[C@H](C(=O)N[C@@H](Cc1ccccc1)[C@@H](O)CN(Cc1ccc(-c2ccccn2)cc1)NC(=O)[C@@H](NC(=O)OC)C(C)(C)C)C(C)(C)C` [atazanavir]: the EC50 in data set [11] is 2 µM.

For `O=c1c2ccccc2[se]n1-c1ccccc1` [ebselen], the LD50 in [8] (in rats) is given as > 4,600 mg/kg.

For `CCOC(=O)c1cc(=O)oc2cc(O)c(O)cc12` [esculetin-4-carboxylic acid ethyl ester], in [12], the “TC50 (median toxic concentration)” value was over 800 µM. In [10], the IC50 was 46 µM. Also, the EC50 in data set [13] is 112 µM.
